Experimental data published in publication PMC12497685, “Anticoronavirus Isoquinoline Alkaloids: Unraveling the Secrets of Their Structure–Activity Relationship” (Influenza and Other Respiratory Viruses, 2025).
Where two headings read alike, the source gives them in different places.

Tests used:
Assay type in all cases: cell-based
[1] = tested on: SARS‐CoV‐2 spike protein pseudotyped lentivirus, D614G variant; details: read-out: Pseudovirus assay, IC50, D614G
[2] = tested on: SARS‐CoV‐2 spike protein pseudotyped lentivirus, Delta variant; test: organism not typed; details: read-out: Pseudovirus assay, IC50, Delta
[3] = tested on: SARS‐CoV‐2 spike protein pseudotyped lentivirus, Omicron variant; test: organism not typed; details: read-out: Pseudovirus assay, IC50, Omicron
[4] = tested on: SARS‐CoV‐2 spike protein pseudotyped lentivirus, D614G, Delta, and Omicron variants; details: for IC50: read-out: Pseudovirus assay, IC50 values as a range over D614G, Delta, and Omicron variants

Row | Molecule | IC50 ([1]; mean ± SEM (n = 3)) [µM] | IC50 ([2]; mean ± SEM (n = 3)) [µM] | IC50 ([3]; mean ± SEM (n = 3)) [µM] | IC50 [4] [µM] | activity in SARS‐CoV‐2 S‐protein and ACE2 binding (pseudovirus) assay (in words) [4] | IC50 [1] [µM] | IC50 ([2]; HEK-293T) [µM] | IC50 ([3]; HEK-293T) [µM]
1 | CC(C)C[C@H](NC(=O)[C@H]1O[C@@H]1C(=O)O)C(=O)NCCCCN=C(N)N [E‐64, reference compound] | 23.1 ± 0.63 | 23.1 ± 1.3 | 22.7 ± 1.28 | 22.7 to 23.1 | – | – | – | –
2 | (±)‐Haemanthidine [Compound 1] | > 10 | > 10 | – | – | inactive at nontoxic concentration | – | – | –
3 | (+)‐aromoline [Compound 16] | – | 0.47 ± 0.08 | 0.86 ± 0.12 | 0.47 to 0.66 | – | 0.67 ± 0.09 | – | –
4 | COc1ccc2cc1Oc1ccc(cc1)C[C@H]1c3c(cc4c(c3Oc3cc5c(cc3OC)CCN(C)[C@@H]5C2)OCO4)CCN1C [Cepharantine, Cepharanthine, reference compound] | – | – | – | – | – | 0.48 ± 0.09 | 1.64 ± 0.18 | 1.31 ± 0.07
5 | COc1cc2c3cc1Oc1c(O)c(OC)cc4c1[C@@H](Cc1ccc(O)c(c1)Oc1ccc(cc1)C[C@@H]3N(C)CC2)N(C)CC4 [Compound 19, (+)‐obamegine] | – | – | – | – | – | 1.4 ± 0.35 | 2.61 ± 0.42 | 1.19 ± 0.16
6 | COc1cc2c3cc1Oc1c(OC)c(OC)cc4c1[C@@H](Cc1ccc(O)c(c1)Oc1ccc(cc1)C[C@@H]3N(C)CC2)N(C)CC4 [Compound 17, (+)‐berbamine] | – | – | – | – | – | 2.23 ± 0.49 | 2.56 ± 0.16 | 2.29 ± 0.29
